This is an account of results in patent US20190153051A1, “FUSION PROTEIN OF C2 DOMAIN AND AKT KINASE DOMAIN FRAGMENT AND USE THEREOF” (Gachon University of Industry-Academic Cooperation …, priority 2017, published 2019).

Data set [1] can be described thus: ITC of phospholipid liposomes with calcium. Type of data set: binding. Conditions: liposome with POPC 80:20, 25° C. Here is the method: (§1) Particularly, a protein solution was prepared by suspending a protein in 10 mM HEPES (pH 7.0). Phospholipid related ligand was titrated in the protein solution at 25° C. by using iTC200 micro calorimetry system (MicroCal Inc., USA), and the generated graph was corrected using Origin software (MicroCal Inc., USA). At this time, the phospholipid related ligand was prepared in the form of liposome by mixing POPC (1-palmitoyl-2-oleoyl-sn-glycero-3-phosphocholin) chloroform solution and POPS (1-palmitoyl-2-oleoyl-sn-glycero-3-phosphoserine), PI(3,4)P2 (1,2-dipalmotoyl-sn-glycero-3-phosphatidylinositol-3,4-[…]), PI(4,5)P2 (1,2-dipalmotoyl-sn-glycero-3-phosphatidylinositol-4,5-trisphosphate) or PI(3,4,5)P3 (1,2-dipalmotoyl-sn-glycero-3-phosphatidylinositol-3,4,5-trisphosphate) at the molar ratio of 80:20. The organic solvent was eliminated. The organic solvent was removed and a single layer lamellar was produced in HEPES (pH 7.0) using phospholipids.

For data set [2], the system named is Akt protein. In words: Western blotting of Akt protein phosphorylation in insulin-treated HepG2 cells. In kind it is cell-based, human. Here is the method: First, male C57BL/6 mice at 8 weeks were divided into the fasted group wherein the mice were fasted for 16 hours and the refed group wherein the mice were fasted for 16 hours and then fed for 4 hours. Each group was sub-divided into the high fat diet group (HFD) and the normal diet group (chow). The liver cells were extracted from the raised mice by the same manner and under the same conditions as described in Example 1. The extracted liver cells were lysed in a lysis buffer containing phosphatase (Sigma-Aldrich, USA) and protease inhibitor (Sigma-Aldrich, USA). Proteins extracted from 2 to 3 mg of the liver tissue were homogenized by using a tissue homogenizer (TissuLyser, Qiagen, USA) for 1.5 minutes at a frequency of 1/30 sec. The homogenized lysate was centrifuged at 12,000 rpm for 15 minutes and the supernatant was obtained. The amount of the extracted protein was quantified by using a protein assay kit (Bio-Rad Laboratories, USA), and at this time BSA was used as a standard sample. 3 mg of the protein was mixed with 6× loading buffer, followed by electrophoresis using 10% SDS-PAGE gel. The electrophoresed protein was transferred onto a polyvinylidene fluoride (PVDF) membrane by using a transfer buffer at 4° C. with 120 V for 1.5 hours. The PVDF membrane on which the protein was transferred was pretreated with a blocking buffer prepared by mixing 5% skim milk with TBS buffer (TBS-T, pH 7.6) supplemented with Tween 20 for 30 minutes, and the membrane was washed with TBS-T. The washed membrane was added with the antibody against Akt (Cell Signaling Technology, USA), Akt(T308) (Cell Signaling Technology, USA), Akt(S473) (Cell Signaling Technology, USA), FOXO3A (Cell Signaling Technology, USA), FOXO3A(S253) (Cell Signaling Technology, USA), GSK-3β (Cell Signaling Technology, USA) or GSK-3β(S9) (Cell Signaling Technology, USA) protein as a primary antibody, followed by reaction at 4° C. for 12 hours. At this time, the antibody against actin (Santa Cruz Biotechnology, USA) protein was used for the control group. Upon completion of the reaction, the secondary antibody corresponding to the primary antibody was added thereto, followed by reaction at room temperature for 30 minutes. The PVDF membrane was washed with TBS-T buffer three times. The washed PVDF membrane was added with ECL solution (Thermo Scientific, USA), followed by image observation.
To investigate the changes in insulin sensitivity when insulin was added to the fatty liver cell model constructed in vitro, the phosphorylations of those proteins that were involved in insulin signaling mechanism were examined. PA was added to the human HepG2 cells prepared in Example 3, followed by reaction for 24 hours. […]
(In general: In western blotting, separated proteins are transferred to a membrane and probed.)

A short description of data set [3]: Protein-lipid binding assay (PIP-strips). Here is the method:
(§2) Particularly, the analysis was performed by using membrane-immobilized lipid strips (PIP-strips, Echelon Biosciences Inc., USA). At this time, the membrane was loaded with LPA (lysophosphatidic acid), LPC (lysophosphatidylcholine), PI (phosphatidylinositol), PE (phosphatidylethanolamine), PC (phosphatidylcholine), S1P (sphingosine 1-phosphate), PA (phosphatidic acid) or PS (phosphatidylserine) at the concentration of 100 pmol, to which calcium was added at the concentration of 0, 0.05 or 0.1 mM. Each membrane was pre-treated with a blocking buffer [fatty acid free 3% BSA (bovine serum albumin), 0.1% (v/v) Tween 20 and TBS (Tris-buffered saline), pH 7.5] at room temperature for 30 minutes. The PH domain of Atk protein purified in Example <7-1> was suspended in a blocking buffer at the concentration of 3.5 mg/Ml. The suspended protein was reacted with the membrane-immobilized lipid strip at room temperature for 30 minutes. The protein bound with lipid was identified by using the PH domain antibody.
To investigate whether or not the binding of the PKCβ protein C2 domain purified in Example <8-1> to PI(4,5)P2 or PI(3,4,5)P3 was inhibited by calcium, protein-lipid binding assay and ITC were performed. First, protein-lipid binding assay was performed by the same manner under the same conditions as described in Example <7-2> except that the PKCβ protein C2 domain was used instead of the Akt protein PH domain. At this time, D187/193A and D246/248A mutant proteins of the C2 domain were used as the control group, and the results are shown in FIG. 8.

A short description of data set [4]: ITC of C2 domain with PI(3,4,5)P3 liposomes. Type of data set: binding. The method, then:
as §1
In the meantime, in ITC, the phospholipid related ligand was prepared in the form of liposome by mixing POPC chloroform solution and PI(3,4,5)P3 at the molar ratio of 80:20. Then, ITC was performed by the same manner under the same conditions as described in Example <7-3> except that the PKCβ protein C2 domain or D187/193A, the C2 domain mutant, was used.

The subject of data set [5] is CHO cells. In words: Migration of mCherry-tagged PH or C2 domain to the cell membrane, fluorescence microscopy. In kind it is cell-based. From the text: First, the PH domain of Akt1 protein or the C2 domain of PKCβ protein was obtained by PCR using the primers consisting of the nucleotide sequences represented by […]. The obtained PCR product was cloned in pmCherry-C1 vector (Takara Clontech, Japan) by the conventional cloning method. CHO cells were transfected with the prepared vector by using lipofectamine according to the manufacturer's protocol. The transfected cells were selected by using blastidicin. Then, mCherry positive cells were confirmed by flow cytometry.
PMA at the concentration of 100 nM, ionomycin at the concentration of 10 μM or insulin at the concentration of 100 nM was added to the cells expressing the PH domain of Akt1 protein or the C2 domain of PKCβ protein and the location of the expressed protein was confirmed by fluorescence microscopy.

In data set [6] the test system is Akt protein. Nature of the data set: Western blot of Akt activation in HepG2 cells co-transfected with PI3K under increased calcium. Type of data set: cell-based, human.
A short description of data set [7]: Protein-lipid binding assay (PIP-strips). The method, then:
as §2
This is another data set of the same source.

The mark [8] stands for this setting: HepG2, PMA 0, 10, 50 or 100 nM or ionomycin 0, 1, 5, 10 or 20 μM, 100 nM insulin, dose-dependent.
[9] abbreviates: membrane-immobilized lipid strips.
Where [10] appears, read: intracellular calcium concentration increased (PMA 100 nM, ionomycin 10 μM).

As for `CCCCCCCCCCCCCCCC(=O)OCC(COP(=O)(O)OC1C(O)C(O)C(OP(=O)(O)O)C(OP(=O)(O)O)C1O)OC(=O)CCCCCCCCCCCCCCC` (stereo not shown) [PI(3,4)P2, 1,2-dipalmotoyl-sn-glycero-3-phosphatidylinositol-3,4-triphosphate], the binding to calcium entry in data set [1] was “high affinity”.
Still for that read-out and setting: the entry for `CCCCCCCCCCCCCCCC(=O)OCC(COP(=O)(O)OC1C(O)C(OP(=O)(O)O)C(OP(=O)(O)O)C(OP(=O)(O)O)C1O)OC(=O)CCCCCCCCCCCCCCC` (stereo not shown) [PI(3,4,5)P3, 1,2-dipalmotoyl-sn-glycero-3-phosphatidylinositol-3,4,5-trisphosphate] is “high affinity”; for `CCCCCCCCCCCCCCCC(=O)OCC(COP(=O)(O)OC1C(O)C(O)C(OP(=O)(O)O)C(OP(=O)(O)O)C1O)OC(=O)CCCCCCCCCCCCCCC` (stereo not shown) [PI(4,5)P2, 1,2-dipalmotoyl-sn-glycero-3-phosphatidylinositol-4,5-trisphosphate] it is “high affinity”.
Regarding `CCCCCCCCCCCCCC(=O)O[C@@H]1[C@@H](C)[C@@]2(O)[C@@H](C=C(CO)C[C@]3(O)C(=O)C(C)=C[C@@H]23)[C@@H]2C(C)(C)[C@]12OC(C)=O` [PMA, phorbol myristate acetate], the “phosphorylation of Akt protein” value in data set [2] (setting [8]) is recorded as “significantly inhibited”.
On to `C[C@H](CCC(=O)O)C[C@H](C)C[C@H](C)C(=O)/C=C(\O)[C@H](C)C[C@H](C)C/C=C/[C@@H](C)[C@@H](O)[C@@H](C)[C@@H](O)C[C@@H]1CC[C@@](C)([C@H]2CC[C@@](C)([C@@H](C)O)O2)O1` [ionomycin], for which the “phosphorylation of Akt protein” value in data set [2] (setting [8]) is “significantly inhibited”.
For the molecule `COc1ccc(CCN(C)CCCC(C#N)(c2ccc(OC)c(OC)c2)C(C)C)cc1OC` (stereo not shown) [verapamil], the “phosphorylation of Akt protein” value in data set [2] (HepG2, verapamil 0, 5, 10 or 100 nM, effect of insulin addition) is “increased”.
For “C2 domain of PKCβ protein: purified C2 domain of PKCβ protein, SEQ. ID. NO: 14”, the “effect of calcium on binding to PI(3,4,5)P3” value in data set [3] (calcium 0, 0.05 or 0.1 mM) is recorded as “promoted”. The “effect of calcium on binding to PI(4,5)P2” value in data set [3] (calcium 0, 0.05 or 0.1 mM) is listed as “promoted”. In addition, in data set [3] (setting [9]), the “binding to PI(3,4,5)P3” value is on record as “strongly bound”. Also, in data set [3] (setting [9]), the “binding to PI(4,5)P2” value was “strongly bound”. Also, the “binding to PI(3,4,5)P3 by ITC” value in data set [4] (absence of calcium) is given as “not induced”; in data set [4] (increased calcium concentration, POPC:PI(3,4,5)P3 80:20 liposome) it was “strongly bound”. Besides, the results for the “migration to the cell membrane” value in data set [5] (insulin 100 nM added) and in data set [5] (setting [10]) were “did not migrate to the cell membrane” and “migrated as the intracellular calcium concentration was increased”, respectively.
With “wild type Akt protein: control: wild type Akt protein containing the PH domain, SEQ. ID. NO: 16”, the “Akt protein activation by PI3K” value in data set [6] is “activated”. For the same molecule, the “Akt protein activation as calcium concentration increases” value in data set [6] (PMA 0, 10, 50 or 100 nM, ionomycin 20 μM, 1 hour) was “inhibited”.

B1: PH domain of Akt protein: purified PH domain of Akt1 protein, SEQ. ID. NO: 13 (protein)
chain: MSDVAIVKEGWLHKRGEYIKTWRPRYFLLKNDGTFIGYKERPQDVDQREAPLNNFSVAQCQLMKTERPRPNTFIIRCLQWTTVIERTFHVETPEEREEWTTAIQTVADGLKKQEEEEMDFRSGSPSDNSGAEEMEVSLAKPKHR
modifications: artificial_PH domain of Akt protein
For B1, the “effect of calcium on binding to PI(3,4,5)P3” value in data set [3] (calcium 0, 0.05 or 0.1 mM) is given as “inhibited as calcium concentration was increased”. The “binding to PI(3,4,5)P3” value in data set [3] (setting [9]) was “bound”. The “effect of calcium on binding to PI(3,4)P2” value in data set [7] (calcium 0, 0.05 or 0.1 mM) is “inhibited as calcium concentration was increased”. In addition, in data set [7] (setting [9]), the “binding to PI(3,4)P2” value is on record as “bound”. In addition, the “migration to the cell membrane” value is “migrated to the cell membrane” in data set [5] (insulin 100 nM added) and “not observed” in data set [5] (setting [10]).
